# Measured values reported in patent US9833497B2, “Human originated EGF domain proteins and use of the same” (CHENGDU SOURCEBIO LIMITED-LIABILITY COMPANY, priority 2013, dated 2017).
# What was measured:
# Format in all cases: cell-based
# E. coli BL21 = experiment: MIC against Gram-negative bacteria: E. coli BL21; settings: for MIC E. coli BL21 / MIC (μg/mL) E. coli BL21: 5×10^5 CFU/mL
# Summary of the method: (§1)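 LB broth cultures at McFarland 0.5, spun down, resuspended, diluted to 5×10^5 CFU/mL final. Two-fold serial dilutions of purified human EGF domain proteins, triplicate. 37° C, 175 rpm shaking. Endpoint: no visible growth.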
# Serratia marcescens = experiment: MIC against Gram-negative bacteria: Serratia marcescens; settings: for MIC S. marcescens / MIC (μg/mL) S. marcescens: 5×10^5 CFU/mL
# Summary of the method: as §1
# Pseudomonas aeruginosa = experiment: MIC against Gram-negative bacteria: Pseudomonas aeruginosa; settings: for MIC P. aeruginosa / MIC (μg/mL) P. aeruginosa: 5×10^5 CFU/mL
# Summary of the method: as §1
# Proteus vulgaris = experiment: MIC against Gram-negative bacteria: Proteus vulgaris; settings: for MIC P. vulgaris / MIC (μg/mL) P. vulgaris: 5×10^5 CFU/mL
# Summary of the method: as §1
# Citrobacter diversus = experiment: MIC against Gram-negative bacteria: Citrobacter diversus; settings: for MIC C. diversus / MIC (μg/mL) C. diversus: 5×10^5 CFU/mL
# Summary of the method: as §1
# Enterobacter cloacae = experiment: MIC against Gram-negative bacteria: Enterobacter cloacae; settings: for MIC E. cloacae / MIC (μg/mL) E. cloacae: 5×10^5 CFU/mL
# Summary of the method: as §1
# Klebsiella pneumonia = experiment: MIC against Gram-negative bacteria: Klebsiella pneumonia; settings: for MIC K. pneumonia / MIC (μg/mL) K. pneumonia: 5×10^5 CFU/mL
# Summary of the method: as §1
# Moraxella catarrhalis = experiment: MIC against Gram-negative bacteria: Moraxella catarrhalis; settings: for MIC M. catarrhalis / MIC (μg/mL) M. catarrhalis: 5×10^5 CFU/mL
# Summary of the method: as §1
# E. coli DH5α = experiment: Antibacterial activity: MIC and growth curve against E. coli DH5α in 96-well plate; settings: minimal inhibitory concentration against E. coli DH5α; 96-well plate, 5×10^5 CFU/mL, 37° C., judged after 8 h
# Summary of the method: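 MIC taken as lowest protein level with no bacterial growth, tracked by A600 every 30 min during 37 °C, 175 rpm culture. Two-fold protein series 50-12.5 μg/mL final, triplicate wells, against 5×10^5 CFU/mL of LB-washed mid-log cells.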
# Aeromonas hydrophila = experiment: MIC against Gram-negative bacteria: Aeromonas hydrophila; settings: for MIC A. hydrophila / MIC (μg/mL) A. hydrophila: 5×10^5 CFU/mL
# Summary of the method: as §1
# Proteus mirabilis = experiment: MIC against Gram-negative bacteria: Proteus mirabilis; settings: for MIC P. mirabilis / MIC (μg/mL) P. mirabilis: 5×10^5 CFU/mL
# Summary of the method: as §1
# [1] = 10 h cultivation at 37° C., two-fold serial dilution
# [2] = E. coli BL21, 10 h cultivation at 37° C.
# [3] = S. marcescens, 10 h cultivation at 37° C.
# [4] = P. aeruginosa, 10 h cultivation at 37° C.
# [5] = P. vulgaris, 10 h cultivation at 37° C.
# [6] = C. diversus, 10 h cultivation at 37° C.
# [7] = E. cloacae, 10 h cultivation at 37° C.
# [8] = K. pneumonia, 10 h cultivation at 37° C.
# [9] = M. catarrhalis, 10 h cultivation at 37° C.
# [10] = A. hydrophila, 10 h cultivation at 37° C.
# [11] = P. mirabilis, 10 h cultivation at 37° C.
# [12] = E. coli BL21, 96-well plate, 37° C., 10 h
# [13] = Serratia marcescens, 96-well plate, 37° C., 10 h
# [14] = Pseudomonas aeruginosa, 96-well plate, 37° C., 10 h
# [15] = Proteus vulgaris, 96-well plate, 37° C., 10 h
# [16] = Citrobacter diversus, 96-well plate, 37° C., 10 h
# [17] = Enterobacter cloacae, 96-well plate, 37° C., 10 h
# [18] = Klebsiella pneumonia, 96-well plate, 37° C., 10 h
# [19] = Moraxella catarrhalis, 96-well plate, 37° C., 10 h
# [20] = Aeromonas hydrophila, 96-well plate, 37° C., 10 h
# [21] = Proteus mirabilis, 96-well plate, 37° C., 10 h
substance,measurement,setting,value
PRT1058 (DIDECQLGEHSCGENASCTNTEGGYTCMCAGRLSEPGLICP; listed as Homo sapiens),MIC E. coli BL21,E. coli BL21; [1],25 µg/mL
same,MIC S. marcescens,Serratia marcescens; [1],12.5 µg/mL
same,MIC P. aeruginosa,Pseudomonas aeruginosa; [1],50 µg/mL
same,MIC P. vulgaris,Proteus vulgaris; [1],50 µg/mL
same,MIC C. diversus,Citrobacter diversus; [1],12.5 µg/mL
same,MIC E. cloacae,Enterobacter cloacae; [1],12.5 µg/mL
same,MIC K. pneumonia,Klebsiella pneumonia; [1],25 µg/mL
same,MIC M. catarrhalis,Moraxella catarrhalis; [1],50 µg/mL
same,MIC,E. coli DH5α,12.5 µg/mL
same,MIC A. hydrophila,Aeromonas hydrophila; [1],50 µg/mL
same,MIC P. mirabilis,Proteus mirabilis; [1],12.5 µg/mL
PRT637 (DIDECVNNTVCDSHGFCDNTAGSFRCLCYQGFQAPQDG; listed as Homo sapiens),MIC E. coli BL21,"E. coli BL21; 96-well plate, 37° C., 10 h",12.5 µg/mL
same,MIC S. marcescens,"Serratia marcescens; 96-well plate, 37° C., 10 h",50 µg/mL
same,MIC P. aeruginosa,"Pseudomonas aeruginosa; 96-well plate, 37° C., 10 h",25 µg/mL
same,MIC P. vulgaris,"Proteus vulgaris; 96-well plate, 37° C., 10 h",25 µg/mL
same,MIC C. diversus,"Citrobacter diversus; 96-well plate, 37° C., 10 h",50 µg/mL
same,MIC E. cloacae,"Enterobacter cloacae; 96-well plate, 37° C., 10 h",12.5 µg/mL
same,MIC K. pneumonia,"Klebsiella pneumonia; 96-well plate, 37° C., 10 h",50 µg/mL
same,MIC M. catarrhalis,"Moraxella catarrhalis; 96-well plate, 37° C., 10 h",25 µg/mL
same,MIC,E. coli DH5α,25 µg/mL
same,MIC A. hydrophila,"Aeromonas hydrophila; 96-well plate, 37° C., 10 h",25 µg/mL
same,MIC P. mirabilis,"Proteus mirabilis; 96-well plate, 37° C., 10 h",12.5 µg/mL
PRT1042 (SGFFCPSTHSCQNGGVFQTPQGSCSCPPGWMGTICS; listed as Homo sapiens),MIC,E. coli BL21; [2],50 µg/mL
same,MIC,Serratia marcescens; [3],50 µg/mL
same,MIC,Pseudomonas aeruginosa; [4],12.5 µg/mL
same,MIC,Proteus vulgaris; [5],25 µg/mL
same,MIC,Citrobacter diversus; [6],50 µg/mL
same,MIC,Enterobacter cloacae; [7],50 µg/mL
same,MIC,Klebsiella pneumonia; [8],25 µg/mL
same,MIC,Moraxella catarrhalis; [9],12.5 µg/mL
same,MIC,E. coli DH5α,25 µg/mL
same,MIC,Aeromonas hydrophila; [10],50 µg/mL
same,MIC,Proteus mirabilis; [11],50 µg/mL
PRT28 (VDACLLNPCQNQGSCRHLPGAPHGYTCDCVGGYFGHHCE; listed as Homo sapiens),MIC (μg/mL) E. coli BL21,E. coli BL21; [12],25 µg/mL
same,MIC (μg/mL) S. marcescens,Serratia marcescens; [13],50 µg/mL
same,MIC (μg/mL) P. aeruginosa,Pseudomonas aeruginosa; [14],12.5 µg/mL
same,MIC (μg/mL) P. vulgaris,Proteus vulgaris; [15],25 µg/mL
same,MIC (μg/mL) C. diversus,Citrobacter diversus; [16],25 µg/mL
same,MIC (μg/mL) E. cloacae,Enterobacter cloacae; [17],25 µg/mL
same,MIC (μg/mL) K. pneumonia,Klebsiella pneumonia; [18],50 µg/mL
same,MIC (μg/mL) M. catarrhalis,Moraxella catarrhalis; [19],50 µg/mL
same,MIC,E. coli DH5α,50 µg/mL
same,MIC (μg/mL) A. hydrophila,Aeromonas hydrophila; [20],12.5 µg/mL
same,MIC (μg/mL) P. mirabilis,Proteus mirabilis; [21],12.5 µg/mL
PRT874 (CNCNQIGSVHDRCNETGFCECREGAAGPKCDDCLPTHYWRQGCYP; listed as Homo sapiens),MIC (μg/mL) E. coli BL21,E. coli BL21; [2],25 µg/mL
same,MIC (μg/mL) S. marcescens,Serratia marcescens; [3],12.5 µg/mL
same,MIC (μg/mL) P. aeruginosa,Pseudomonas aeruginosa; [4],12.5 µg/mL
same,MIC (μg/mL) P. vulgaris,Proteus vulgaris; [5],12.5 µg/mL
same,MIC (μg/mL) C. diversus,Citrobacter diversus; [6],12.5 µg/mL
same,MIC (μg/mL) E. cloacae,Enterobacter cloacae; [7],12.5 µg/mL
same,MIC (μg/mL) K. pneumonia,Klebsiella pneumonia; [8],12.5 µg/mL
same,MIC (μg/mL) M. catarrhalis,Moraxella catarrhalis; [9],25 µg/mL
same,MIC,E. coli DH5α,12.5 µg/mL
same,MIC (μg/mL) A. hydrophila,Aeromonas hydrophila; [10],12.5 µg/mL
same,MIC (μg/mL) P. mirabilis,Proteus mirabilis; [11],12.5 µg/mL
PRT772 (TIVSTESLETLAPGLCQEGQIWNGKQCVCPQGYVGYQCL; listed as Homo sapiens),MIC (μg/mL) E. coli BL21,E. coli BL21; [2],50 µg/mL
same,MIC (μg/mL) S. marcescens,Serratia marcescens; [3],12.5 µg/mL
same,MIC (μg/mL) P. aeruginosa,Pseudomonas aeruginosa; [4],12.5 µg/mL
same,MIC (μg/mL) P. vulgaris,Proteus vulgaris; [5],25 µg/mL
same,MIC (μg/mL) C. diversus,Citrobacter diversus; [6],12.5 µg/mL
same,MIC (μg/mL) E. cloacae,Enterobacter cloacae; [7],12.5 µg/mL
same,MIC (μg/mL) K. pneumonia,Klebsiella pneumonia; [8],50 µg/mL
same,MIC (μg/mL) M. catarrhalis,Moraxella catarrhalis; [9],25 µg/mL
same,MIC,E. coli DH5α,12.5 µg/mL
same,MIC (μg/mL) A. hydrophila,Aeromonas hydrophila; [10],50 µg/mL
same,MIC (μg/mL) P. mirabilis,Proteus mirabilis; [11],50 µg/mL
PRT138 (PCHNNATCEDSVDNYTCHCWPGYTGAQCE; listed as Homo sapiens),MIC (μg/mL) E. coli BL21,E. coli BL21; [12],50 µg/mL
same,MIC (μg/mL) S. marcescens,Serratia marcescens; [13],25 µg/mL
same,MIC (μg/mL) P. aeruginosa,Pseudomonas aeruginosa; [14],12.5 µg/mL
same,MIC (μg/mL) P. vulgaris,Proteus vulgaris; [15],12.5 µg/mL
same,MIC (μg/mL) C. diversus,Citrobacter diversus; [16],12.5 µg/mL
same,MIC (μg/mL) E. cloacae,Enterobacter cloacae; [17],50 µg/mL
same,MIC (μg/mL) K. pneumonia,Klebsiella pneumonia; [18],25 µg/mL
same,MIC (μg/mL) M. catarrhalis,Moraxella catarrhalis; [19],100 µg/mL
same,MIC,E. coli DH5α,12.5 µg/mL
same,MIC (μg/mL) A. hydrophila,Aeromonas hydrophila; [20],25 µg/mL
same,MIC (μg/mL) P. mirabilis,Proteus mirabilis; [21],12.5 µg/mL
